Laboratory results taken from ChEMBL document CHEMBL3414566, “Synthesis, docking and ADMET studies of novel chalcone triazoles for anti-cancer and anti-diabetic activity” (Eur J Med Chem, 2015).

Legend:
[1] = Inhibition of rat intestinal alpha-glucosidase using nitrophenyl-alpha-D-glucopyranoside by spectrophotometrically
MCF7 = experiment: Anticancer activity against human MCF7 cells by MTT assay; assay type: functional, cell-based
DU-145 = experiment: Anticancer activity against human DU145 cells by MTT assay; assay type: functional, cell-based
[2] = Anticancer activity against human IMR32 cells by MTT assay; assay type: functional, cell-based, IMR-32
A549 = experiment: Anticancer activity against human A549 cells by MTT assay; assay type: functional, cell-based
HepG2 = experiment: Anticancer activity against human HepG2 cells by MTT assay; assay type: functional, cell-based
[3] = Homo sapiens, IMR-32, read-out: IC50
[4] = Homo sapiens, A549, read-out: IC50
[5] = Homo sapiens, MCF7, read-out: IC50
[6] = Homo sapiens, HepG2, read-out: IC50
[7] = Homo sapiens, DU-145, read-out: IC50

Structure (SMILES) | IC50 [1] | IC50 (MCF7; mcf7) | IC50 (DU-145; du-145) | IC50 [2, 3] [µM] | IC50 (A549; [4]) [µM] | IC50 (HepG2; hepg2) | IC50 (MCF7; [5]) [µM] | IC50 ([2]; imr-32) | IC50 (HepG2; [6]) [µM] | IC50 ([1]; read-out: IC50) [µM] | IC50 (A549; a549) | IC50 (DU-145; [7]) [µM]
CC1(C)CCc2cc(C(=O)/C=C/c3ccc(OCc4cn(-c5ccc(Cl)cc5)nn4)cc3)c(O)cc2O1 | Not Active | Not Active | Not Active | 92.1 | 75.5 | Not Active |  |  |  |  |  | 
CC1(C)CCc2cc(C(=O)/C=C/c3ccc(OCc4cn(-c5ccc(Br)cc5)nn4)cc3)c(O)cc2O1 | Not Active | Not Active | Not Active | 69.4 | 80 | Not Active |  |  |  |  |  | 
Cc1c(-n2cc(COc3ccc(/C=C/C(=O)c4cc5c(cc4O)OC(C)(C)CC5)cc3)nn2)cccc1[N+](=O)[O-] | Not Active |  | Not Active |  | 65.9 |  | 176 | Not Active | 109 |  |  | 
COc1ccc(-n2cc(COc3ccc(/C=C/C(=O)c4cc5c(cc4O)OC(C)(C)CC5)cc3)nn2)c([N+](=O)[O-])c1 | Not Active | Not Active | Not Active |  | 99.5 | Not Active |  | Not Active |  |  |  | 
CC(=O)c1ccc(-n2cc(COc3ccc(/C=C/C(=O)c4cc5c(cc4O)OC(C)(C)CC5)cc3)nn2)cc1 | Not Active |  | Not Active |  | 66.3 | Not Active | 182 | Not Active |  |  |  | 
CCc1ccccc1-n1cc(COc2ccc(/C=C/C(=O)c3cc4c(cc3O)OC(C)(C)CC4)cc2)nn1 | Not Active | Not Active | Not Active |  | 137 |  |  | Not Active | 115 |  |  | 
Cc1ccc(-n2cc(COc3ccc(/C=C/C(=O)c4cc5c(cc4O)OC(C)(C)CC5)cc3)nn2)cc1Br | Not Active | Not Active | Not Active |  | 125 |  |  | Not Active | 117 |  |  | 
CC1(C)CCc2c(ccc(C(=O)/C=C/c3ccc(OCc4cn(-c5ccc(Cl)cc5)nn4)cc3)c2O)O1 |  | Not Active | Not Active |  |  |  |  | Not Active | 102 | 128 | Not Active | 
CC1(C)CCc2c(ccc(C(=O)/C=C/c3ccc(OCc4cn(-c5ccc(Br)cc5)nn4)cc3)c2O)O1 | Not Active | Not Active | Not Active | 117 | 129 |  |  |  | 136 |  |  | 
Cc1c(-n2cc(COc3ccc(/C=C/C(=O)c4ccc5c(c4O)CCC(C)(C)O5)cc3)nn2)cccc1[N+](=O)[O-] | Not Active |  | Not Active | 73.5 |  |  | 145 |  | 115 |  | Not Active | 
COc1ccc(-n2cc(COc3ccc(/C=C/C(=O)c4ccc5c(c4O)CCC(C)(C)O5)cc3)nn2)c([N+](=O)[O-])c1 | Not Active |  | Not Active | 132 |  |  | 73.1 |  | 120 |  | Not Active | 
CC(=O)c1ccc(-n2cc(COc3ccc(/C=C/C(=O)c4ccc5c(c4O)CCC(C)(C)O5)cc3)nn2)cc1 | Not Active |  | Not Active | 89.5 | 149 |  | 171 |  | 91.4 |  |  | 
CCc1ccccc1-n1cc(COc2ccc(/C=C/C(=O)c3ccc4c(c3O)CCC(C)(C)O4)cc2)nn1 |  | Not Active | Not Active |  | 112 |  |  | Not Active | 67.8 | 67.8 |  | 
Cc1ccc(-n2cc(COc3ccc(/C=C/C(=O)c4ccc5c(c4O)CCC(C)(C)O5)cc3)nn2)cc1Br | Not Active | Not Active | Not Active |  |  |  |  | Not Active | 110 |  | Not Active | 
CC1(C)CCc2cc(C(=O)/C=C/c3ccc(OCc4cn(Cc5ccc([N+](=O)[O-])cc5)nn4)cc3)c(O)cc2O1 | Not Active | Not Active | Not Active | 108 | 35.8 |  |  |  | 109 |  |  | 
CCCCCn1cc(COc2ccc(/C=C/C(=O)c3cc4c(cc3O)OC(C)(C)CC4)cc2)nn1 |  | Not Active | Not Active |  | 91.3 |  |  | Not Active | 95.8 | 74.9 |  | 
CCCCCCCCn1cc(COc2ccc(/C=C/C(=O)c3cc4c(cc3O)OC(C)(C)CC4)cc2)nn1 | Not Active | Not Active | Not Active | 7.09 | 50.8 |  |  |  | 127 |  |  | 
CC1(C)CCc2c(ccc(C(=O)/C=C/c3ccc(OCc4cn(Cc5ccc([N+](=O)[O-])cc5)nn4)cc3)c2O)O1 | Not Active |  |  | 17.3 | 69.9 |  | 17.1 |  | 69.9 |  |  | 29.9
CCCCCn1cc(COc2ccc(/C=C/C(=O)c3ccc4c(c3O)CCC(C)(C)O4)cc2)nn1 |  |  | Not Active |  | 48.6 |  | 191 | Not Active | 9.82 | 102 |  | 
CCCCCCCCn1cc(COc2ccc(/C=C/C(=O)c3ccc4c(c3O)CCC(C)(C)O4)cc2)nn1 | Not Active | Not Active | Not Active |  |  |  |  | Not Active | 74.1 |  | Not Active | 
C[C@H]1O[C@H](O[C@H]2[C@H](O)[C@@H](O)[C@@H](O[C@H]3[C@H](O)[C@@H](O)C(O)O[C@@H]3CO)O[C@@H]2CO)[C@H](O)[C@@H](O)[C@@H]1N[C@H]1C=C(CO)[C@@H](O)[C@H](O)[C@H]1O (stereo partly specified) [ACARBOSE] |  | Not Active | Not Active |  |  | Not Active |  | Not Active |  | 23.9 | Not Active | 
COc1cccc2c1C(=O)c1c(O)c3c(c(O)c1C2=O)C[C@@](O)(C(=O)CO)C[C@@H]3O[C@H]1C[C@H](N)[C@H](O)[C@H](C)O1 [DOXORUBICIN] | Not Active |  |  | 44.4 | 69.3 |  |  |  | 1.05 |  |  | 17.7
